Test results from patent publication US12023319B2, “Carboxylic acid aromatic amides” (priority 2016, dated 2024).

Biological target: T1, human Bradykinin B1 receptor (Homo sapiens, UniProt P46663)
T1 construct: host or cells: CHO-K1
T1 sequence (P46663 1-353): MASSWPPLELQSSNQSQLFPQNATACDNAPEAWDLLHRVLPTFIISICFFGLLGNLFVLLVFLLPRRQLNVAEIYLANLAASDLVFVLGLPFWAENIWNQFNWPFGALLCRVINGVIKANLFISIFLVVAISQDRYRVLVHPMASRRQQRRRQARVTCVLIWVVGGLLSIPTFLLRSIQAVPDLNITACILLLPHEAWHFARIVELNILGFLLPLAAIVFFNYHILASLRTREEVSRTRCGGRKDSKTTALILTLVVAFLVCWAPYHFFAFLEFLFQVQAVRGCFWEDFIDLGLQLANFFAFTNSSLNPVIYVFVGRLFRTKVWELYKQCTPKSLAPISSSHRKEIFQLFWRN
Assay: Calcium flux assay (FLIPR), CHO-K1 cells expressing human Bradykinin B1 receptor, absence of 0.1% BSA (hB1 free IC50)
Format: cell-based
Settings: absence of 0.1% BSA in assay buffer
Description: The potency to inhibit the Bradykinin B1 receptor was determined for the Compound Examples of this invention in a cell-based fluorescent calcium-mobilisation assay. The assay measures the ability of Compound Examples to inhibit Bradykinin B1 receptor agonist-induced increase of intracellular free Ca^2+ in the cell line expressing Bradykinin B1 receptor. Specifically, calcium indicator-loaded cells are pre-incubated in the absence or presence of different concentrations of Compound Examples followed by the stimulation with a selective Bradykinin B1 receptor agonist peptide. The change of the intracellular Ca^2+ concentration is monitored with a fluorescent plate reader FLIPR^TETRA® (Molecular Devices).
Calcium Flux Assays (FLIPR) with Cells Expressing Human Bradykinin B1 Receptor (hB1)
CHO-K1 cell line expressing human Bradykinin B1 receptor is purchased from Euroscreen (Gosselies, Belgium, with reference name hB1-D1). The cells are grown in Nutrient Mixture Ham's F12 (Sigma) containing 10% Foetal bovine serum (Sigma) and 400 μg/mL G418 (Sigma), 5 μg/mL puromycin (Sigma).
The effect of BSA on the potency of endothelin receptor antagonists have been described in the prior art (Wu-Wong, J. R. et al. (1997), JPET 281: 791-798). The teaching can be applied in analogy to testing the potency of Bradykinin B1 receptor antagonist in the FLIPR assays.
For the calcium flux assay, 80% confluent cells are detached from the culture vessels with Versene (Gibco), and seeded into 384-well plates (Cell binding Surface; Corning, NY; #3683) at a density of 15,000 cells per well. Cells are seeded in a volume of 50 μL in medium without antibiotics and incubated overnight in a humidified atmosphere with 5% CO2 at 37° C. […] The calcium indicator loaded cells are incubated at 37° C. for 2 hrs. Extracellular dye is then removed and each well is filled with 45 μL of assay buffer. Cell plates are kept in dark until used. Compound examples are assayed at 8 concentrations in triplicate. Serial 10-fold dilutions in 100% DMSO are made at a 100-times higher concentration than the final concentration, and then diluted 1:10 in assay buffer. 5 μL of each diluted compound is added to the well of cell plates (yielding final concentration with 1% DMSO), and incubated for 30 min at 28° C. before the addition of Bradykinin B1 receptor agonist on the FLIPR instrument.
The addition of agonist 20 μl per well to the assay plate is carried out on the FLIPR instrument while continuously monitoring Ca2+-dependent fluorescence at 538 nm. A peptide antagonist Lys-(Des-Arg-Leu)-Bradykinin (Bachem, Brackley) at 20 µM is used to determine the full inhibition as control.
Peak fluorescence is used to determine the response to agonist obtained at each concentration of Compound Examples by the following equation: % Response=100*(RFU(compound)−RFU(control))/(RFU(DMSO)−RFU(control))
RFU means relative fluorescence units.
Control means full inhibition by the peptide antagonist Lys-(Des-Arg-Leu)-Bradykinin at 20 µM.
The response values are plotted against the logarithm of the compound concentrations. The Compound Examples are tested in triplicates per plate and mean values are plotted in Excel XLfit to determine IC50 values, percentage of maximal inhibition and the Hill slopes.

| SMILES | IC50 [nM] |
| --- | --- |
| CC1CCC(C2(C(=O)Nc3cc(F)c(-c4cnn(C5CCC5)c4)c(C(=O)O)c3)CC2)CC1 (mixture of isomers) [Example 144, 2-(1-Cyclobutyl-1H-pyrazol-4-yl)-3-fluoro-5-({[1-(4-methylcyclohexyl)cyclopropyl]carbonyl}amino)benzoic acid] | 320 |
| CCC(F)(F)c1ccc(-c2ccc(NC(=O)C3(c4ccc(F)cc4F)CC3)cc2C(=O)O)cn1 [Example 23, 5-({[1-(2,4-Difluorophenyl)cyclopropyl]carbonyl}amino)-2-[6-(1,1-difluoropropyl)pyridin-3-yl]benzoic acid] | 2400 |
| CCC(F)(F)c1ccc(-c2ccc(NC(=O)C3(c4ccc(Cl)cc4F)CC3)cc2C(=O)O)cn1 [Example 24, 5-({[1-(4-Chloro-2-fluorophenyl)cyclopropyl]carbonyl}amino)-2-[6-(1,1-difluoropropyl)pyridin-3-yl]benzoic acid] | 290 |
| Cc1ccc(C2(C(=O)Nc3ccc(-c4ccc(C(C)(F)F)nc4)c(C(=O)O)c3)CC2)c(F)c1 [Example 30, 2-[6-(1,1-Difluoroethyl)pyridin-3-yl]-5-({[1-(2-fluoro-4-methylphenyl)cyclopropyl]carbonyl}amino)benzoic acid] | 410 |
| CC(F)(F)c1ccc(-c2ccc(NC(=O)C3(c4ccc(C(F)(F)F)cc4F)CC3)cc2C(=O)O)cn1 [Example 31, 2-[6-(1,1-Difluoroethyl)pyridin-3-yl]-5-[({1-[2-fluoro-4-(trifluoromethyl)phenyl]cyclopropyl}carbonyl)amino]benzoic acid] | 130 |
| CC(F)(F)c1ccc(-c2ccc(NC(=O)C3(c4ccc(OC(F)(F)F)cc4F)CC3)cc2C(=O)O)cn1 [Example 32, 2-[6-(1,1-Difluoroethyl)pyridin-3-yl]-5-[({1-[2-fluoro-4-(trifluoromethoxy)phenyl]cyclopropyl}carbonyl)amino]benzoic acid] | 190 |
| CC(O)c1ccc(-c2ccc(NC(=O)C3(c4ccc(C(F)(F)F)cc4F)CC3)cc2C(=O)O)cn1 (centres unmarked) [Example 33, 5-[({1-[2-Fluoro-4-(trifluoromethyl)phenyl]cyclopropyl}carbonyl)amino]-2-[6-(1-hydroxyethyl)pyridin-3-yl]benzoic acid] | 460 |
| O=C(O)c1cc(NC(=O)C2(c3ccc(Cl)cc3)CC2)cc(F)c1-c1cnn(C2CCC2)c1 [Example 35, 5-({[1-(4-Chlorophenyl)cyclopropyl]carbonyl}amino)-2-(1-cyclobutyl-1H-pyrazol-4-yl)-3-fluorobenzoic acid] | 26 |
| O=C(O)c1cc(NC(=O)C2(c3ccc(C(F)(F)F)cc3F)CC2)ccc1-c1cn(C2CCC2)nc1F [Example 45, 2-(1-Cyclobutyl-3-fluoro-1H-pyrazol-4-yl)-5-[({1-[2-fluoro-4-(trifluoromethyl)phenyl]cyclopropyl}carbonyl)amino]benzoic acid] | 55 |
| O=C(O)c1cc(NC(=O)C2(c3ccc(C(F)(F)F)cc3F)CC2)ccc1-c1cc2cccnc2s1 [Example 46, 5-[({1-[2-Fluoro-4-(trifluoromethyl)phenyl]cyclopropyl}carbonyl)amino]-2-(thieno[2,3-b]pyridin-2-yl)benzoic acid] | 58 |
| O=C(O)c1cc(NC(=O)C2(c3ccc(C(F)(F)F)cc3F)CC2)ccc1-c1ccc(Cl)s1 [Example 47, 2-(5-Chloro-2-thienyl)-5-[({1-[2-fluoro-4-(trifluoromethyl)phenyl]cyclopropyl}carbonyl)amino]benzoic acid] | 230 |
| O=C(O)c1cc(NC(=O)C2(c3ccc(C(F)(F)F)cc3F)CC2)ccc1-c1ccc(C(F)(F)F)s1 [Example 48, 5-[({1-[2-Fluoro-4-(trifluoromethyl)phenyl]cyclopropyl}carbonyl)amino]-2-[5-(trifluoromethyl)-2-thienyl]benzoic acid] | 220 |
| O=C(O)c1cc(NC(=O)C2(c3ccc(C(F)(F)F)cc3)CC2)ccc1-c1cnn(C2CCC2)c1 [Example 50, 2-(1-Cyclobutyl-1H-pyrazol-4-yl)-5-[({1-[4-(trifluoromethyl)phenyl]cyclopropyl}carbonyl)amino]benzoic acid] | 62 |
| O=C(O)c1cc(NC(=O)C2(c3cc(F)ccc3F)CC2)ccc1-c1cnn(C2CCC2)c1 [Example 55, 2-(1-Cyclobutyl-1H-pyrazol-4-yl)-5-({[1-(2,5-difluorophenyl)cyclopropyl]carbonyl}amino)benzoic acid] | 280 |

Results, then the compound that gave them:

| IC50 [nM] | SMILES |
| --- | --- |
| 690 | O=C(O)c1cc(NC(=O)C2(c3cc(F)c(F)cc3F)CC2)ccc1-c1ccc(C(F)(F)F)nc1 [Example 8, 2-[6-(Trifluoromethyl)pyridin-3-yl]-5-({[1-(2,4,5-trifluorophenyl)cyclopropyl]carbonyl}amino)benzoic acid] |
| 3600 | O=C(O)c1cc(NC(=O)C2(c3ccc(C(F)(F)F)cc3F)CC2)ccc1-n1ccc(CC(F)(F)F)n1 [Example 15, 5-[({1-[2-Fluoro-4-(trifluoromethyl)phenyl]cyclopropyl}carbonyl)amino]-2-[3-(2,2,2-trifluoroethyl)-1H-pyrazol-1-yl]benzoic acid] |
| 2800 | O=C(O)c1cc(NC(=O)C2(c3ccc(C(F)(F)F)cc3F)CC2)ccc1-n1cc(C(F)(F)F)cn1 [Example 16, 5-[({1-[2-Fluoro-4-(trifluoromethyl)phenyl]cyclopropyl}carbonyl)amino]-2-[4-(trifluoromethyl)-1H-pyrazol-1-yl]benzoic acid] |
| 710 | CCC(F)(F)c1ccc(-c2ccc(NC(=O)C3(c4ccc(C(F)(F)F)cc4)CC3)cc2C(=O)O)cn1 [Example 21, 2-[6-(1,1-Difluoropropyl)pyridin-3-yl]-5-[({1-[4-(trifluoromethyl)phenyl]cyclopropyl}carbonyl)amino]benzoic acid] |
| 290 | CCC(F)(F)c1ccc(-c2ccc(NC(=O)C3(c4ccc(OC(F)(F)F)cc4)CC3)cc2C(=O)O)cn1 [Example 22, 2-[6-(1,1-Difluoropropyl)pyridin-3-yl]-5-[({1-[4-(trifluoromethoxy)phenyl]cyclopropyl}carbonyl)amino]benzoic acid] |
| 31 | O=C(O)c1cc(NC(=O)C2(c3ccc(C(F)(F)F)cc3F)CC2)ccc1-c1cnn(CC(F)(F)F)c1 [Example 34, 5-[({1-[2-Fluoro-4-(trifluoromethyl)phenyl]cyclopropyl}carbonyl)amino]-2-[1-(2,2,2-trifluoroethyl)-1H-pyrazol-4-yl]benzoic acid] |
| 22 | O=C(O)c1cc(NC(=O)C2(c3ccc(F)c(F)c3)CC2)cc(F)c1-c1cnn(C2CCC2)c1 [Example 38, 2-(1-Cyclobutyl-1H-pyrazol-4-yl)-5-({[1-(3,4-difluorophenyl)cyclopropyl]carbonyl}amino)-3-fluorobenzoic acid] |
| 47 | O=C(O)c1cc(NC(=O)C2(c3ccc(Cl)c(F)c3)CC2)ccc1-c1cnn(C2CCC2)c1 [Example 49, 5-({[1-(4-Chloro-3-fluorophenyl)cyclopropyl]carbonyl}amino)-2-(1-cyclobutyl-1H-pyrazol-4-yl)benzoic acid] |
| 740 | O=C(O)c1cc(NC(=O)C2(c3cccc(Cl)c3F)CC2)ccc1-c1cnn(C2CCC2)c1 [Example 52, 5-({[1-(3-Chloro-2-fluorophenyl)cyclopropyl]carbonyl}amino)-2-(1-cyclobutyl-1H-pyrazol-4-yl)benzoic acid] |
